This note sets out measurements from patent WO2018160794A1, “Epha2-targeted docetaxel -generating liposomes in combination with an agent that impedes regulatory t cell activity for treating cancer” (dated 2018).

Assay [1] deals with EMT-6. Kind of assay: In vivo antitumor efficacy in EMT-6 model versus free docetaxel (Example 3). Set-up: species or system mouse. To be noted: EMT-6, Example 3.
For another assay, the system named is MC38. The assay is described as follows: In vivo antitumor efficacy in MC38 colon cancer model (Example 8). More on the design: species or system mouse. Particulars: MC38, C57BL6/J mice; days after treatment initiation; Figure 9B.
The test system of another assay is T cells in EMT-6 tumors. The assay is described as follows: FACS of immune cell infiltrate in EMT-6 tumors versus dose-dense and standard docetaxel (Example 6). Format: in vivo, mouse. To be noted: EMT-6, Example 6.
Assay [2] deals with EMT-6. Kind of assay: In vivo tumor growth inhibition in EMT-6 model versus dose-dense and standard docetaxel (Example 6). Set-up: species or system mouse. Particulars: EMT-6, Example 6; docetaxel 3.33 mg/kg three times a week (DTX-DD); Figure 7A.

For the compound `CC(=O)O[C@@]12CO[C@@H]1C[C@H](O)[C@@]1(C)C(=O)[C@H](O)C3=C(C)[C@@H](OC(=O)[C@H](O)[C@@H](NC(=O)OC(C)(C)C)c4ccccc4)C[C@@](O)([C@@H](OC(=O)c4ccccc4)[C@H]21)C3(C)C` [docetaxel], in the assay on EMT-6 [1], the tumor regression result is recorded as “no tumor regression”. For the same compound, the growth arrest entry with EMT-6 [1] (monotherapy, PD-1 10 mg/kg twice weekly, docetaxel 10 mg/kg q1w) is “minimal growth arrest”. In the assay on MC38, this compound yielded a median survival of 16 days. The “effect on intratumoral immune cell populations” value in the assay on T cells in EMT-6 tumors (dose-dense docetaxel (DTX-DD), 3.33 mg/kg three times a week) is on record as “Neither the dose-dense (DTX-DD) nor the weekly (DTX-MTD) docetaxel treatment groups were observed to affect these intratumoral immune cell populations”; in the assay on T cells in EMT-6 tumors (weekly docetaxel (DTX-MTD), 10 mg/kg once a week) it was “Neither the dose-dense (DTX-DD) nor the weekly (DTX-MTD) docetaxel treatment groups were observed to affect these intratumoral immune cell populations”. Also, in the assay on EMT-6 [2], the “tumor growth inhibition (in words)” value is recorded as “improved growth inhibition relative to DTX-MTD, but it did not recapitulate the inhibition observed in 46scFv-ILs-DTXp3 treatment”.
